pEC50: −log10 of the molar value.
Each compound was assayed against Arabidopsis thaliana SHMT (assay: SHMT activity assay (ED50 SHMT), coupled with N5,N10-CH2-THF dehydrogenase, NADH at 340 nm). Conditions: Table 2; values given as upper bounds.
Assay type: biochemical
Procedure, shortened: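 His-tagged SHMT purified on Ni-NTA. NADH formation followed at 340 nm for 30 min; ED50 from inhibition of initial velocity.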

Row | SMILES | pEC50
1 | Cc1n[nH]c2c1C(c1cc(OCc3nnn[nH]3)cc(C(F)(F)F)c1)(C1CCC1)C(C#N)=C(N)O2 (stereo not drawn) [Compound 2.474] | > 8.00
2 | Cc1n[nH]c2c1C(c1cc(C#N)cc(OCc3nnn[nH]3)c1)(C1CCC1)C(C#N)=C(N)O2 (stereo not drawn) [Compound 2.475] | > 8.00
3 | COCOc1cc(C(F)(F)F)cc(C2(C3CCC3)C(C#N)=C(N)Oc3[nH]nc(C)c32)c1 (stereo not drawn) [Compound 2.476] | > 8.00
4 | CCOC(=O)COc1cc(Br)cc(C2(C3(F)CC3)C(C#N)=C(N)Oc3[nH]nc(C)c32)c1 (stereo not drawn) [Compound 2.479] | > 7.00
5 | CCOC(=O)COc1cc(Cl)cc(C2(C3CCC3)C(C#N)=C(N)Oc3[nH]nc(C)c32)c1 (stereo not drawn) [Compound 2.480] | > 7.00
6 | Cc1n[nH]c2c1C(c1cc(Cl)cc(Oc3ccc(O)cc3[N+](=O)[O-])c1)(C1CCC1)C(C#N)=C(N)O2 (stereo not drawn) [Compound 2.481] | > 8.00
7 | Cc1n[nH]c2c1C(c1ccc(O)c(Cl)c1)(C1CCC1)C(C#N)=C(N)O2 (stereo not drawn) [Compound 2.485] | > 8.00
8 | COc1c(Cl)cc(C2(C3CCC3)C(C#N)=C(N)Oc3[nH]nc(C)c32)cc1C#N (stereo not drawn) [Compound 2.487] | > 8.00
9 | Cc1n[nH]c2c1C(c1cc(Cl)cc(N3CCOCC3)c1)(C1CCC1)C(C#N)=C(N)O2 (stereo not drawn) [Compound 2.488] | > 8.00
10 | Cc1n[nH]c2c1C(c1cc(Cl)cc(NS(=O)(=O)c3ccccc3)c1)(C1CCC1)C(C#N)=C(N)O2 (stereo not drawn) [Compound 2.490] | > 8.00
11 | COc1c(C#N)cc(C2(C3CCC3)C(C#N)=C(N)Oc3[nH]nc(C)c32)cc1C(F)(F)F (stereo not drawn) [Compound 2.491] | > 8.00
12 | COc1c(Br)cc(C2(C3CCC3)C(C#N)=C(N)Oc3[nH]nc(C)c32)cc1C#N (stereo not drawn) [Compound 2.492] | > 8.00
13 | Cc1n[nH]c2c1C(c1cc(Cl)cc(-c3ccc(-c4nnn[nH]4)cc3)c1)(C1CCC1)C(C#N)=C(N)O2 (stereo not drawn) [Compound 2.493] | > 8.00
14 | Cc1n[nH]c2c1C(c1cc(Cl)cc(CCC(=O)O)c1)(C1(F)CC1)C(C#N)=C(N)O2 (stereo not drawn) [Compound 2.497] | > 7.00
15 | Cc1n[nH]c2c1C(c1cc(Cl)cc(CC(=O)O)c1)(C1(F)CC1)C(C#N)=C(N)O2 (stereo not drawn) [Compound 2.498] | > 7.00
16 | Cc1n[nH]c2c1C(c1cc(Cl)cc(CC(=O)O)c1)(C1CCC1)C(C#N)=C(N)O2 (stereo not drawn) [Compound 2.499] | > 8.00
17 | Cc1n[nH]c2c1C(c1cc(Cl)cc(CCC(=O)O)c1)(C1CCC1)C(C#N)=C(N)O2 (stereo not drawn) [Compound 2.500] | > 8.00
18 | Cc1n[nH]c2c1C(c1cc(Cl)cc(C(F)(F)F)c1)(C1(F)COC1)C(C#N)=C(N)O2 (stereo not drawn) [Compound 2.502] | > 8.00
19 | Cc1n[nH]c2c1C(c1cc(Br)cc(OCC(=O)O)c1)(C1(F)CC1)C(C#N)=C(N)O2 (stereo not drawn) [Compound 2.503] | > 5.00

Row | SMILES | pEC50
20 | Cc1n[nH]c2c1C(c1cc(Cl)c(OCC(=O)O)c(Cl)c1)(C1CCC1)C(C#N)=C(N)O2 (stereo not drawn) [Compound 2.504] | > 6.00
21 | Cc1n[nH]c2c1C(c1cc(Br)cc(OCC(=O)O)c1)(C1CCC1)C(C#N)=C(N)O2 (stereo not drawn) [Compound 2.507] | > 5.00
22 | Cc1n[nH]c2c1C(c1cc(O)cc(Cl)c1)(C1CCC1)C(C#N)=C(N)O2 (stereo not drawn) [Compound 2.508] | > 5.00
23 | Cc1n[nH]c2c1C(c1cc(C#N)cc(-c3cccc(C(=O)O)c3)c1)(C1(F)CC1)C(C#N)=C(N)O2 (stereo not drawn) [Compound 2.510] | > 8.00
24 | Cc1n[nH]c2c1C(c1cc(Cl)cc(-c3cccc(-c4nnn[nH]4)c3)c1)(C1CCC1)C(C#N)=C(N)O2 (stereo not drawn) [Compound 2.515] | > 8.00
25 | Cc1n[nH]c2c1C(c1cc(C#N)cc(-c3ccc(C(=O)O)cc3)c1)(C(C)C)C(C#N)=C(N)O2 (stereo not drawn) [Compound 2.519] | > 8.00
26 | CCc1n[nH]c2c1C(c1cc(C#N)cc(C#N)c1)(C(C)C)C(C#N)=C(N)O2 (stereo not drawn) [Compound 2.520] | > 8.00
27 | CCC1(c2cc(Cl)cc(C#N)c2)C(C#N)=C(N)Oc2[nH]nc(C)c21 (stereo not drawn) [Compound 2.529] | > 8.00
28 | CCCC1(c2cc(C#N)cc(C(F)(F)F)c2)C(C#N)=C(N)Oc2[nH]nc(C)c21 (stereo not drawn) [Compound 2.531] | > 8.00
29 | CCC1(c2cc(Br)cc(C#N)c2)C(C#N)=C(N)Oc2[nH]nc(C)c21 (stereo not drawn) [Compound 2.532] | > 8.00
30 | CCCC1(c2cc(Cl)cc(C#N)c2)C(C#N)=C(N)Oc2[nH]nc(C)c21 (stereo not drawn) [Compound 2.533] | > 8.00
31 | CCCC1(c2cc(Br)cc(C#N)c2)C(C#N)=C(N)Oc2[nH]nc(C)c21 (stereo not drawn) [Compound 2.534] | > 8.00
32 | CCCC1(c2cc(C#N)cc(C#N)c2)C(C#N)=C(N)Oc2[nH]nc(C)c21 (stereo not drawn) [Compound 2.535] | > 8.00
33 | Cc1n[nH]c2c1C(c1cc(Cl)cc(CCc3nnn[nH]3)c1)(C1CCC1)C(C#N)=C(N)O2 (stereo not drawn) [Compound 2.539] | > 8.00
34 | Cc1n[nH]c2c1C(c1ccc(CCC(=O)O)c(Cl)c1)(C1CCC1)C(C#N)=C(N)O2 (stereo not drawn) [Compound 2.542] | > 7.00
35 | Cc1n[nH]c2c1C(c1ccc(CCC(=O)O)c(C(F)(F)F)c1)(C1CCC1)C(C#N)=C(N)O2 (stereo not drawn) [Compound 2.543] | > 7.00
36 | Cc1n[nH]c2c1C(c1ccc(CC(=O)O)c(C(F)(F)F)c1)(C1CCC1)C(C#N)=C(N)O2 (stereo not drawn) [Compound 2.544] | > 7.00
37 | CC(=O)N(C)c1cc(C#N)cc(C2(C(C)C)C(C#N)=C(N)Oc3[nH]nc(C)c32)c1 (stereo not drawn) [Compound 2.553] | > 8.00
38 | Cc1n[nH]c2c1C(c1cc(Cl)cc(CCC#N)c1)(C1CCC1)C(C#N)=C(N)O2 (stereo not drawn) [Compound 2.555] | > 8.00

Further lines, results first:

Row | pEC50 | SMILES
39 | > 8.00 | COCOc1cc(C#N)cc(C2(C3CCC3)C(C#N)=C(N)Oc3[nH]nc(C)c32)c1 (stereo not drawn) [Compound 2.477]
40 | > 8.00 | Cc1n[nH]c2c1C(c1cc(Cl)cc(-c3cccc(C(=O)O)c3)c1)(C1CCC1)C(C#N)=C(N)O2 (stereo not drawn) [Compound 2.482]
41 | > 8.00 | Cc1n[nH]c2c1C(c1cc(Cl)cc(-c3ccc(C(=O)O)cc3)c1)(C1CCC1)C(C#N)=C(N)O2 (stereo not drawn) [Compound 2.483]
42 | > 8.00 | Cc1n[nH]c2c1C(c1cc(C#N)cc(-c3cc(F)c(O)c(F)c3)c1)(C1CCC1)C(C#N)=C(N)O2 (stereo not drawn) [Compound 2.484]
43 | > 7.00 | Cc1n[nH]c2c1C(c1cccc(-c3cccc(C(=O)O)c3)c1)(C1CCC1)C(C#N)=C(N)O2 (stereo not drawn) [Compound 2.494]
44 | > 8.00 | Cc1n[nH]c2c1C(c1cccc(-c3ccc(C(=O)O)cc3)c1)(C1CCC1)C(C#N)=C(N)O2 (stereo not drawn) [Compound 2.495]
45 | > 8.00 | COC(=O)c1cc(-c2cc(C#N)cc(C3(C4CCC4)C(C#N)=C(N)Oc4[nH]nc(C)c43)c2)ccc1Cl (stereo not drawn) [Compound 2.509]
46 | > 8.00 | Cc1n[nH]c2c1C(c1cc(C#N)cc(-c3cccc(C(=O)O)c3)c1)(C1(F)CC1)C(C#N)=C(N)O2 (stereo not drawn) [Compound 2.511]
47 | > 8.00 | Cc1n[nH]c2c1C(c1cc(Cl)cc(-c3cccc(C#N)c3)c1)(C1CCC1)C(C#N)=C(N)O2 (stereo not drawn) [Compound 2.512]
48 | > 8.00 | COC(=O)c1cc(F)cc(-c2cc(C#N)cc(C3(C4CCC4)C(C#N)=C(N)Oc4[nH]nc(C)c43)c2)c1 (stereo not drawn) [Compound 2.513]
49 | > 8.00 | COC(=O)c1cc(Cl)cc(-c2cc(C#N)cc(C3(C4CCC4)C(C#N)=C(N)Oc4[nH]nc(C)c43)c2)c1 (stereo not drawn) [Compound 2.517]
50 | > 8.00 | COC(=O)c1ccc(-c2cc(C#N)cc(C3(C4CCC4)C(C#N)=C(N)Oc4[nH]nc(C)c43)c2)cc1OC (stereo not drawn) [Compound 2.522]
51 | > 8.00 | COC(=O)CCc1cccc(-c2cc(C#N)cc(C3(C4CCC4)C(C#N)=C(N)Oc4[nH]nc(C)c43)c2)c1 (stereo not drawn) [Compound 2.523]
52 | > 8.00 | COC(=O)Cc1cccc(-c2cc(C#N)cc(C3(C4CCC4)C(C#N)=C(N)Oc4[nH]nc(C)c43)c2)c1 (stereo not drawn) [Compound 2.524]
53 | > 8.00 | COC(=O)CCc1cccc(-c2cc(C#N)cc(C3(C4CCC4)C(C#N)=C(N)Oc4[nH]nc(C)c43)c2)c1 (stereo not drawn) [Compound 2.525]
54 | > 8.00 | COC(=O)Cc1ccc(-c2cc(C#N)cc(C3(C4CCC4)C(C#N)=C(N)Oc4[nH]nc(C)c43)c2)cc1 (stereo not drawn) [Compound 2.526]

Row | pEC50 | SMILES
55 | > 8.00 | CCOC(=O)COc1ccc(-c2cc(C#N)cc(C3(C4CCC4)C(C#N)=C(N)Oc4[nH]nc(C)c43)c2)cc1 (stereo not drawn) [Compound 2.536]
56 | > 8.00 | Cc1n[nH]c2c1C(c1cc(C#N)cc(-c3ccc(OCC(=O)O)cc3)c1)(C1CCC1)C(C#N)=C(N)O2 (stereo not drawn) [Compound 2.538]
57 | > 8.00 | Cc1n[nH]c2c1C(c1cc(C#N)cc(-c3cc(F)cc(C(=O)O)c3)c1)(C1CCC1)C(C#N)=C(N)O2 (stereo not drawn) [Compound 2.545]
58 | > 7.00 | COC(=O)c1ccc(-c2cc(C#N)cc(C3(C4CCC4)C(C#N)=C(N)Oc4[nH]nc(C)c43)c2)cc1Cl (stereo not drawn) [Compound 2.546]
59 | > 8.00 | COc1ccc(-c2cc(C#N)cc(C3(C4CCC4)C(C#N)=C(N)Oc4[nH]nc(C)c43)c2)cc1C(F)(F)F (stereo not drawn) [Compound 2.547]
60 | > 8.00 | COC(=O)c1cc(OC)cc(-c2cc(C#N)cc(C3(C4CCC4)C(C#N)=C(N)Oc4[nH]nc(C)c43)c2)c1 (stereo not drawn) [Compound 2.548]
61 | > 7.00 | COC(=O)c1cc(C(=O)OC)cc(-c2cc(C#N)cc(C3(C4CCC4)C(C#N)=C(N)Oc4[nH]nc(C)c43)c2)c1 (stereo not drawn) [Compound 2.549]
62 | > 8.00 | COC(=O)c1ccc(-c2cc(C#N)cc(C3(C4CCC4)C(C#N)=C(N)Oc4[nH]nc(C)c43)c2)cc1C(=O)OC (stereo not drawn) [Compound 2.550]
63 | > 7.00 | COC(=O)c1cc(OC(F)(F)F)cc(-c2cc(C#N)cc(C3(C4CCC4)C(C#N)=C(N)Oc4[nH]nc(C)c43)c2)c1 (stereo not drawn) [Compound 2.551]
64 | > 7.00 | COC(=O)c1cc(-c2cc(C#N)cc(C3(C4CCC4)C(C#N)=C(N)Oc4[nH]nc(C)c43)c2)cc(C(F)(F)F)c1 (stereo not drawn) [Compound 2.552]
65 | > 8.00 | COC(=O)c1cc(-c2cc(C#N)cc(C3(C4CCC4)C(C#N)=C(N)Oc4[nH]nc(C)c43)c2)cc([N+](=O)[O-])c1 (stereo not drawn) [Compound 2.554]
66 | > 8.00 | Cc1n[nH]c2c1C(c1cc(C#N)cc(-c3ccc(Cl)c(C(=O)O)c3)c1)(C1CCC1)C(C#N)=C(N)O2 (stereo not drawn) [Compound 2.556]
67 | > 8.00 | Cc1n[nH]c2c1C(c1cc(Cl)cc(-c3ccc(Cl)c(C(=O)O)c3)c1)(C1CCC1)C(C#N)=C(N)O2 (stereo not drawn) [Compound 2.557]
68 | > 8.00 | Cc1n[nH]c2c1C(c1cc(C#N)cc(-c3ccc(F)c(C(=O)O)c3)c1)(C1CCC1)C(C#N)=C(N)O2 (stereo not drawn) [Compound 2.558]
69 | > 7.00 | Cc1n[nH]c2c1C(c1cc(C#N)cc(-c3cc(Cl)cc(C(=O)O)c3)c1)(C1CCC1)C(C#N)=C(N)O2 (stereo not drawn) [Compound 2.559]

Reference: patent US9480259B2, “Pyrazolopyrans having herbicidal and pharmaceutical properties” (BASF SE, priority 2012, dated 2016)
